These results are taken from patent US6340670B1, “Acetal benzylmaltosides as inhibitors of smooth muscle cell proliferation” (American Home Products Corporation, priority 1998, dated 2002).

This test concerns Porcine Smooth Muscle Cell. The test is described as follows: Effects of Compounds on Cell Proliferation Using 3H Thymidine Incorporation. Type of test: cell-based. The following applies: for Porcine Smooth Muscle Cell Antiproliferation, percent inhibition: @ 50 μM, control (100%) = maximally stimulated cells; for IC50: serum/growth factor stimulated cells, 24-36 h incubation, read-out: Porcine Smooth Muscle Cell Antiproliferation IC50. On the procedure: Effects of Compounds on Cell Proliferation Using ^3H Thymidine Incorporation
Human and porcine smooth muscle cells were tested in early passage (generally passage 3-7) at sub-confluent conditions. Cultures were grown in 16 mm (24 well) multi-well culture dishes in medium 199 supplemented with 10% fetal bovine serum and 2% antibiotic/antimycotic. At sub-confluence, the cells were placed in a defined serum free medium (AIM-V; Gibco) for 24-48 h prior to initiating the experimental protocol.
Compounds were added to each well at 50 fold dilution (20 μL/well) and the plates were incubated for 24-36 h at 37° C. in 5% CO2. Compounds were initially dissolved in 50% ethanol and serially diluted into media. Compounds were routinely evaluated at concentrations from 1 to 100 μM. As a control, grade II porcine intestinal mucosal heparin (sodium salt) was routinely evaluated in all cell preparations at concentrations from 0.1 to 100 μg/mL.
At the completion of the test procedure, plates were placed on ice, washed three times with ice cold phosphate buffered saline (PBS) and incubated in ice cold 10% trichloroacetic acid (TCA) got 30 min to remove acid soluble proteins. Solution was transferred to scintillation vials containing 0.4 N HCl (500 μL/vial to neutralize NaOH) and each well was rinsed two times with water (500 μL) for a total volume of 2 mL/vial.
Data was obtained, in triplicate, for both control and experimental samples. Control (100%) data was obtained from maximally stimulated cells, as the result of growth factor or serum stimulation. Experimental data was obtained from cells maximally stimulated with growth factor or serum and treated with compound. Data are expressed as an IC50 or percent inhibition in Table I below.
Background: Uptake of a labelled nucleoside into DNA is a usual measure of proliferation.

As to `CCOCC[C@@H]1OC[C@H]2O[C@H](O[C@H]3[C@H](O)[C@@H](O)[C@H](OCc4ccc(Cl)c(NC(C)=O)c4)O[C@@H]3CO)[C@H](O)[C@@H](O)[C@@H]2O1` [Example 20, N-{2-Chloro-5-[(4′,6′-O-((1R)-3-ethoxy-propylidene)-β-D-maltosyloxy)-methyl]-phenyl}-acetamide], the “Porcine Smooth Muscle Cell Antiproliferation, percent inhibition” value is on record as 48% @ 50.
For the molecule `CC(=O)Nc1cc(COC2OC(COC(=O)c3ccccc3)C(OC3OC4COC(C)OC4C(OC(C)=O)C3OC(C)=O)C(OC(C)=O)C2OC(C)=O)ccc1Cl` [Example 3, (R)-N-[2-Chloro-5-[[[2,3-di-O-acetyl-6-O-benzoyl-4-O-(2,3-di-O-acetyl-4,6-O-ethylidene-α-D-glucopyranosyl)-β-D-glucopyranosyl]oxy]methyl]phenyl]acetamide], the IC50 came out at 2920 nM.
The same measure, in the same setting: to `CC(=O)Nc1cc(COC2OC(COC(=O)Cc3ccccc3)C(OC3OC4COC(c5ccccc5)OC4C(OC(C)=O)C3OC(C)=O)C(OC(C)=O)C2OC(C)=O)ccc1Cl` [Example 47, (R)-N-[2-Chloro-5-[[[2,3-di-O-acetyl-4-O-[2,3-di-O-acetyl-4,6-O-(phenylmethylene)-α-D-glucopyranosyl]-6-O-(phenylacetyl)-β-D-glucopyranosyl]-oxy]methyl]phenyl]acetamide] belongs 78 nM.
On the same count and under the same terms, the same measure for `CC(=O)Nc1cc(COC2OC(COC(=O)c3ccccc3)C(OC3OC4COC(c5ccc(Cl)cc5)OC4C(O)C3O)C(O)C2O)ccc1Cl` [Example 13, N-{1 5-[(6-O-Benzoyl-4′,6′-O-(4-chloro)-benzylidene-β-D-maltosyl)-oxy-methyl]-2-chloro-phenyl}-acetamide]: 23 nM; for `CC(=O)N(C)c1cc(COC2OC(COC(=O)c3ccccc3)C(OC3OC4COC(c5ccccc5)OC4C(O)C3O)C(O)C2O)ccc1Cl` [Example 79, N-{5-[(6-O-Benzoyl-4′,6′-O-benzylidene-β-D-maltosyl)-oxymethyl]-2-chloro-phenyl}-N-methyl-acetamide]: 2360 nM; for `CCC1OCC2OC(OC3C(COC(=O)c4ccccc4)OC(OCc4ccc(Cl)c(NC(C)=O)c4)C(O)C3O)C(O)C(O)C2O1` [Example 5, N-{5-[(6-O-Benzoyl-4′,6′-O-propylidene-β-D-maltosyl)-oxy-methyl]-2-chloro-phenyl}-acetamide]: 37 nM.
Regarding “Benzoic acid 6-(3-acetylamino-4-chloro-benzoyloxy)-3-(7,8-dihydroxy-2-pyridin-4-yl-hexahydro-pyrano[3,2-d][1,3]dioxin-6-yloxy)-4,5-dihydroxy-tetrahydro-pyran-2-ylmethyl ester [Example 23]”, the IC50 was 3 nM.
Still for that read-out and setting: to `CC(=O)Nc1cc(COC2OC(COC(=O)c3cccc(I)c3)C(OC3OC4COC(c5ccccc5)OC4C(O)C3O)C(O)C2O)ccc1Cl` [Example 44, N-{5-[(4′,6′-O-Benzylidene-6-O-(3-iodo)-benzoyl-β-D-maltosyl)-oxy-methyl]-2-chloro-phenyl}-acetamide] belongs 62 nM.
As for `CCC1OCC2OC(OC3C(CO)OC(OCc4ccc(Cl)c(NC(C)=O)c4)C(O)C3O)C(O)C(O)C2O1` [Example 4, N-{2-Chloro-5-[(4′,6′-O-propylidene-β-D-maltosyl)-oxy-methyl]-pheny}-acetamide], the “Porcine Smooth Muscle Cell Antiproliferation, percent inhibition” value worked out at 16% @ 50.
As to `CC(=O)Nc1cc(COC2OC(CO)C(OC3OC4COC(c5ccc([N+](=O)[O-])cc5)OC4C(O)C3O)C(O)C2O)ccc1Cl` [Example 10, N-(2-Chloro-5-{[4′,6′-O-(4-nitro)-benzylidene-β-D-maltosyl]-oxy-methyl}-phenyl)-acetamide], the IC50 amounted to 19200 nM.
Same read-out and setting: the same measure for `CC(NC(=O)OCC1c2ccccc2-c2ccccc21)C(=O)Nc1cc(COC2OC(COC(=O)c3ccccc3)C(OC3OC4COC(c5ccccc5)OC4C(O)C3O)C(O)C2O)ccc1Cl` [Example 76, N-(9H-Fluoren-9ylmethoxycarbonyl)-N′-{5-[(6-O-benzoyl-4′,6′-O-benzylidene-β-D-maltosyl)-oxy-methyl]-2-chloro-phenyl}-L-alaninamide]: 156 nM; for `O=[N+]([O-])c1cc(COC2OC(CO)C(OC3OC4COC(c5ccccc5)OC4C(O)C3O)C(O)C2O)ccc1Cl` [Example 29, 4-Chloro-3-nitro-benzyl-4′,6′-O-benyzlidene-β-D-maltoside]: 44100 nM; for `CC(=O)Nc1cc(COC2OC(COC(=O)c3ccc(C(=O)c4ccccc4)cc3)C(OC3OC4COC(c5ccccc5)OC4C(O)C3O)C(O)C2O)ccc1Cl` [Example 56, (R)-N-[5-[[[6-O-(4-Benzoylbenzoyl)-4-O-[4,6-O-(phenylmethylene)-α-D-glucopyranosyl]-β-D-glucopyranosyl]oxy]methyl]-2-chlorophenyl]acetamide]: 530 nM.
As for `C=CCCC(=O)Nc1cc(COC2OC(CO)C(OC3OC4COC(c5ccccc5)OC4C(O)C3O)C(O)C2O)ccc1Cl` [Example 65, N-{2-Chloro-5-[(4′,6′-O-benzylidene-β-D-maltosyl)-oxy-methyl]-phenyl}-pent-4-enamide], the IC50 was 17800 nM.
On the same count and under the same terms, the same measure for `O=C(Nc1cc(COC2OC(COC(=O)c3cccc(I)c3)C(OC3OC4COC(c5ccccc5)OC4C(O)C3O)C(O)C2O)ccc1Cl)c1ccc(C(=O)c2ccccc2)cc1` [Example 73, 4-Benzoyl-N-{5-[(4′,6′-O-benzylidene-6-O-(3-iodo-benzoyl)-β-D-maltosyl)-oxy-methyl]-2-chloro-phenyl}-benzamide]: 132 nM; for `CC(=O)Nc1cc(COC2OC(COC(=O)c3ccccc3)C(OC3OC4COC(c5ccccc5)OC4C(O)C3O)C(O)C2O)ccc1C` [Example 85, N-{5-[(6-O-Benzoyl-4′,6′-O-benzylidene-β-D-maltosyl)-oxy-methyl]-2-methyl-phenyl}-acetamide]: 418 nM; for `C=CCCC(=O)Nc1cc(CO[C@@H]2O[C@H](COC(=O)c3ccccc3)[C@@H](O[C@H]3O[C@@H]4COC(c5ccccc5)O[C@H]4[C@H](O)[C@H]3O)[C@H](O)[C@H]2O)ccc1Cl` (stereo partly drawn) [Example 66, N-{2-Chloro-5-[(6-O-benzoyl-4′,6′-O-benzilidene-β-D-maltosyl)-oxy-methyl]-phenyl}-pent-4-enamide]: 180 nM.
Turning to “N-{5-[(6-O-Benzyl-4′,6′-O-ethylidene-β-D-maltosyl)-oxy-methyl]-2-chloro-phenyl}-acetamide [Example 9]”, the IC50 amounted to 83 nM.
Still for that read-out and setting: the same measure for `CC(=O)Nc1cc(COC2OC(COS(=O)(=O)c3ccc(C)cc3)C(OC3OC4COC(c5ccccc5)OC4C(O)C3O)C(O)C2O)ccc1Cl` [Example 6, N-(5-{[4′,6′-O-Benzylidene-6-O-(4-toluenesulfonyl)-β-D-maltosyl]-oxy-methyl}2-chloro-phenyl)-acetamide]: 133 nM; for `CC(=O)Nc1cc(COC2OC(COS(=O)(=O)c3ccc(C)cc3)C(OC3OC4COC(c5ccccc5)OC4C(OC(C)=O)C3OC(C)=O)C(OC(C)=O)C2OC(C)=O)ccc1Cl` [Example 7, N-(5-{[2,32′,3′-Tetra-O-acetyl-4′,6′-O-benzylidene-6-O-(4-toluenesulfonyl)-β-D-maltosyl]-oxy-methyl}-2-chloro-phenyl)-acetamide]: 88 nM.
Same read-out and setting: the same measure for `CC(=O)OCC1OC(OCc2ccc(C)c(N(C(C)=O)C(C)=O)c2)C(OC(C)=O)C(OC(C)=O)C1OC1OC2COC(c3ccccc3)OC2C(OC(C)=O)C1OC(C)=O` [Example 58, N-Acetyl-{5-[(2,2′,3,3′,6-penta-O-acetyl-4′,6′-O-benzylidene-β-D-maltosyl)-oxy-methyl]-2-methyl-phenyl}acetamide]: 600 nM.
